Laboratory results: the NIST ThermoML archive (doi:10.1016/j.jct.2013.09.018)
± gives the expanded uncertainty stated by the source.

Tests used:
[1] = cn = amount concentration of the nth substance listed, in mol/dm3; settings: 101 kPa, Liquid; for viscosity: Capillary tube (Ostwald / Ubbelohde) method; for mass density: Vibrating tube method
[2] = 101 kPa, Liquid; for viscosity: Capillary tube (Ostwald / Ubbelohde) method; for mass density: Vibrating tube method

CCCCn1cc[n+](C)c1C.F[B-](F)(F)F [1-butyl-2,3-dimethylimidazolium tetrafluoroborate] + CO
[1]
Settings | mass density, c1 = 0.005 [kg/m3] | mass density, c1 = 0.01 [kg/m3] | mass density, c1 = 0.015 [kg/m3] | mass density, c1 = 0.02 [kg/m3] | viscosity, c1 = 0.005 [mPa·s] | viscosity, c1 = 0.01 [mPa·s] | viscosity, c1 = 0.015 [mPa·s] | viscosity, c1 = 0.02 [mPa·s]
298.15 K | 787.59 ± 1 | 788.04 ± 1 | 788.45 ± 1 | 788.96 ± 1 | 0.552 ± 0.012 | 0.5649 ± 0.012 | 0.5747 ± 0.012 | 0.5845 ± 0.012
308.15 K | 778.01 ± 1 | 778.52 ± 1 | 778.98 ± 1 | 779.46 ± 1 | 0.487 ± 0.01 | 0.4978 ± 0.01 | 0.5043 ± 0.011 | 0.513 ± 0.011
318.15 K | 768.49 ± 1 | 769.43 ± 1 | 769.92 ± 1 | 770.36 ± 1 | 0.4271 ± 0.0091 | 0.436 ± 0.0093 | 0.4446 ± 0.0095 | 0.4532 ± 0.0096

CO [methanol]
[2]
Settings | mass density [kg/m3] | viscosity [mPa·s]
298.15 K | 786.61 ± 1 | 0.545 ± 0.011
308.15 K | 777.15 ± 1 | 0.476 ± 0.01
318.15 K | 767.74 ± 1 | 0.4183 ± 0.0089

CO [methanol] + CCCCn1cc[n+](C)c1C.F[B-](F)(F)F
[1], c2 = 0
Settings | mass density [kg/m3] | viscosity [mPa·s]
298.15 K | 786.61 ± 1 | 0.545 ± 0.011
308.15 K | 777.15 ± 1 | 0.476 ± 0.01
318.15 K | 767.74 ± 1 | 0.4183 ± 0.0089
